In one assay the target is T1, human GcgR (Homo sapiens, UniProt P47871).
T1 construct: expressed in transfected cells; crude membranes
Nature of the assay: [125I]-Glucagon binding, SPA with WGA beads, 0.1% bacitracin. The following applies: geometric mean, read-out: hGcgR Ki. In outline: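 SPA competition binding with WGA beads on crude membranes from HEK293 cells stably expressing hGcgR. Buffer: 25 mM HEPES pH 7.4, 2.5 mM CaCl2, 1 mM MgCl2, 0.1% bacitracin, 0.003% Tween-20; 10-point 3-fold dilutions, NSB with 1 μM Gcg.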

Another assay addresses T2, human GIPR (Homo sapiens, UniProt P48546).
T2 construct: expressed in transfected cells; crude membranes
T2 sequence (P48546 22-466): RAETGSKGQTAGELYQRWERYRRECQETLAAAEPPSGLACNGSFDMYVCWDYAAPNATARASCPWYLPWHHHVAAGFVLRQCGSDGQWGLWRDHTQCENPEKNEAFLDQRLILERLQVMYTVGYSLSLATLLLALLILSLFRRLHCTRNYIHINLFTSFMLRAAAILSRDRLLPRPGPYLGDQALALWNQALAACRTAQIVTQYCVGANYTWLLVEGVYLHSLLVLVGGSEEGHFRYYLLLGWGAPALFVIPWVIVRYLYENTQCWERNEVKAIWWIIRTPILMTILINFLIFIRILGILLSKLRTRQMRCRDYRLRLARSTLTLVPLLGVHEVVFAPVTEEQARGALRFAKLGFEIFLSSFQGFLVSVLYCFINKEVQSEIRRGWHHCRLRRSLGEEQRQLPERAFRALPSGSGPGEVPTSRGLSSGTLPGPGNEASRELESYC
As to the kind of experiment: [125I]-GIP binding, SPA with WGA beads, 0.1% bacitracin. The following applies: geometric mean, read-out: hGIPR Ki. In outline:
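Ki values are geometric means (SEM, n independent days), derived from four-parameter nonlinear regression of IC50. Membranes came from hGIPR-expressing CHO cells.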

The results in this text go back to patent US12723063B2, “GIPR-agonist compounds” (Eli Lilly and Company, priority 2019, dated 2026).

*1 amine or outer side, *2 acyl side, *3 side chain or, on linkers, in order; H or OH if unused. Where a SMILES comes first, the peptide text is derived from it. Side-chain parts run from the residue outwards. [ ]: non-standard residue; d: D form. The star is where a group is joined. C20 diacid = O=C(O)CCCCCCCCCCCCCCCCCCC(=O)*; αMePhe(2-F) = C[C@](N)(Cc1ccccc1F)C(=O)O; γGlu = O=C(O)[C@H](CCC(=O)[*:2])N[*:1]; αMeF = C[C@](N)(Cc1ccccc1)C(=O)O; 4Pal = N[C@@H](Cc1ccncc1)C(=O)O; αMeL = CC(C)C[C@](C)(N)C(=O)O; Iva = CC[C@](C)(N)C(=O)O; AEEA = NCCOCCOCC(=O)O; Aib = CC(C)(N)C(=O)O

T1 sequence (P47871 26-477): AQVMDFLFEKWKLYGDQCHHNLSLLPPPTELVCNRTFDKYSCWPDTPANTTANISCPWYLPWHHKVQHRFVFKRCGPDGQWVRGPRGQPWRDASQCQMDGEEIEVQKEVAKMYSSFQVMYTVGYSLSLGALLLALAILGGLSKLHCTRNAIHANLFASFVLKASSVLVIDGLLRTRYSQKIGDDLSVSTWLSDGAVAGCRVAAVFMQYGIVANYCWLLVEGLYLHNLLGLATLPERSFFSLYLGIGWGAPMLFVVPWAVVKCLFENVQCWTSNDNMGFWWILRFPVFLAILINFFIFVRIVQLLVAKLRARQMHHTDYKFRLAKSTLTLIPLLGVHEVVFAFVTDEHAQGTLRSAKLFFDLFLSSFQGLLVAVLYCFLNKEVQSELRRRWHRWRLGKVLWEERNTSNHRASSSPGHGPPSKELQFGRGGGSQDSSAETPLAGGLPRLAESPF

As for `CC[C@H](C)[C@H](NC(=O)[C@H](CO)NC(=O)[C@H](Cc1ccc(O)cc1)NC(=O)[C@H](CC(=O)O)NC(=O)[C@H](CO)NC(=O)[C@@H](NC(=O)[C@](C)(Cc1ccccc1F)NC(=O)[C@@H](NC(=O)CNC(=O)[C@H](CCC(=O)O)NC(=O)C(C)(C)NC(=O)[C@@H](N)Cc1ccc(O)cc1)[C@@H](C)O)[C@@H](C)CC)C(=O)N[C@@H](C)C(=O)N[C@@H](CC(C)C)C(=O)N[C@@H](CC(=O)O)C(=O)N[C@@H](CCCCN)C(=O)N[C@@H](CCCCNC(=O)COCCOCCNC(=O)COCCOCCNC(=O)CC[C@H](NC(=O)CCCCCCCCCCCCCCCCCCC(=O)O)C(=O)O)C(=O)N[C@@H](Cc1c[nH]cn1)C(=O)N[C@@H](CCC(N)=O)C(=O)NC(C)(C)C(=O)N[C@@H](CC(=O)O)C(=O)N[C@@H](Cc1ccccc1)C(=O)N[C@H](C(=O)N[C@@H](CCC(=O)O)C(=O)N[C@@H](Cc1ccncc1)C(=O)N[C@@H](CC(C)C)C(=O)N[C@@H](CC(C)C)C(=O)N[C@@H](CCC(=O)O)C(=O)N[C@H](C(=O)NCC(=O)N1CCC[C@H]1C(=O)N[C@@H](CO)C(=O)N[C@@H](CO)C(=O)NCC(=O)N[C@@H](C)C(=O)N1CCC[C@H]1C(=O)N1CCC[C@H]1C(=O)N1CCC[C@H]1C(=O)N[C@@H](CO)C(N)=O)[C@@H](C)O)C(C)C` [Example 38] (H-Y[Aib]EGT[αMePhe(2-F)]ISDYSIALDKK([AEEA-AEEA-γGlu-C20 diacid])HQ[Aib]DFVE[4Pal]LLETGPSSGAPPPS-NH2), the Ki is 182 nM at human GcgR and 0.0588 nM at human GIPR.
For `CC[C@H](C)[C@H](NC(=O)[C@H](Cc1ccccc1)NC(=O)[C@@H](NC(=O)CNC(=O)[C@H](CCC(=O)O)NC(=O)C(C)(C)NC(=O)[C@@H](N)Cc1ccc(O)cc1)[C@@H](C)O)C(=O)N[C@@H](CO)C(=O)N[C@@H](CC(=O)O)C(=O)N[C@@H](Cc1ccc(O)cc1)C(=O)N[C@@H](CO)C(=O)N[C@H](C(=O)N[C@@](C)(CC(C)C)C(=O)N[C@@H](CC(C)C)C(=O)N[C@@H](CC(=O)O)C(=O)N[C@@H](CCCCN)C(=O)N[C@@H](CCCCNC(=O)COCCOCCNC(=O)COCCOCCNC(=O)CC[C@H](NC(=O)CCCCCCCCCCCCCCCCCCC(=O)O)C(=O)O)C(=O)N[C@@H](Cc1c[nH]cn1)C(=O)N[C@@H](CCC(N)=O)C(=O)NC(C)(C)C(=O)N[C@@H](CCC(=O)O)C(=O)N[C@@H](Cc1ccccc1)C(=O)N[C@H](C(=O)N[C@@H](CCC(=O)O)C(=O)N[C@@H](Cc1ccc(O)cc1)C(=O)N[C@@H](CC(C)C)C(=O)N[C@@H](CC(C)C)C(=O)N[C@@H](CCC(=O)O)C(=O)N[C@H](C(=O)NCC(=O)N1CCC[C@H]1C(=O)N[C@@H](CO)C(=O)N[C@@H](CO)C(=O)NCC(=O)N[C@@H](C)C(=O)N1CCC[C@H]1C(=O)N1CCC[C@H]1C(=O)N1CCC[C@H]1C(=O)N[C@@H](CO)C(N)=O)[C@@H](C)O)C(C)C)[C@@H](C)CC` [Example 64] (H-Y[Aib]EGTFISDYSI[αMeL]LDKK([AEEA-AEEA-γGlu-C20 diacid])HQ[Aib]EFVEYLLETGPSSGAPPPS-NH2), in that order: 196 nM and 0.022 nM.
For `CC[C@H](C)[C@H](NC(=O)[C@H](CO)NC(=O)[C@H](Cc1ccc(O)cc1)NC(=O)[C@H](CC(=O)O)NC(=O)[C@H](CO)NC(=O)[C@@H](NC(=O)[C@](C)(CC)NC(=O)[C@@H](NC(=O)CNC(=O)[C@H](CCC(=O)O)NC(=O)C(C)(C)NC(=O)[C@@H](N)Cc1ccc(O)cc1)[C@@H](C)O)[C@@H](C)CC)C(=O)N[C@@](C)(CC(C)C)C(=O)N[C@@H](CC(C)C)C(=O)N[C@@H](CC(=O)O)C(=O)N[C@@H](CCCCN)C(=O)N[C@@H](CCCCNC(=O)COCCOCCNC(=O)COCCOCCNC(=O)CC[C@H](NC(=O)CCCCCCCCCCCCCCCCCCC(=O)O)C(=O)O)C(=O)N[C@@H](Cc1c[nH]cn1)C(=O)N[C@@H](CCC(N)=O)C(=O)NC(C)(C)C(=O)N[C@@H](CC(=O)O)C(=O)N[C@@H](Cc1ccccc1)C(=O)N[C@H](C(=O)N[C@@H](CCC(=O)O)C(=O)N[C@@H](Cc1ccncc1)C(=O)N[C@@H](CC(C)C)C(=O)N[C@@H](CC(C)C)C(=O)N[C@@H](C)C(=O)NCC(=O)NCC(=O)N1CCC[C@H]1C(=O)N[C@@H](CO)C(=O)N[C@@H](CO)C(=O)NCC(=O)N[C@@H](C)C(=O)N1CCC[C@H]1C(=O)N1CCC[C@H]1C(=O)N1CCC[C@H]1C(=O)N[C@@H](CO)C(N)=O)C(C)C` [Example 55] (H-Y[Aib]EGT[Iva]ISDYSI[αMeL]LDKK([AEEA-AEEA-γGlu-C20 diacid])HQ[Aib]DFVE[4Pal]LLAGGPSSGAPPPS-NH2), in that order: > 960 nM and 0.0331 nM.
The like results for `CC[C@H](C)[C@H](NC(=O)[C@H](CO)NC(=O)[C@H](Cc1ccc(O)cc1)NC(=O)[C@H](CC(=O)O)NC(=O)[C@H](CO)NC(=O)[C@@H](NC(=O)[C@](C)(Cc1ccccc1)NC(=O)[C@@H](NC(=O)CNC(=O)[C@H](CCC(=O)O)NC(=O)C(C)(C)NC(=O)[C@@H](N)Cc1ccc(O)cc1)[C@@H](C)O)[C@@H](C)CC)C(=O)N[C@@H](C)C(=O)N[C@@H](CC(C)C)C(=O)N[C@@H](CC(=O)O)C(=O)N[C@@H](CCCCN)C(=O)N[C@@H](CCCCNC(=O)COCCOCCNC(=O)COCCOCCNC(=O)CC[C@H](NC(=O)CCCCCCCCCCCCCCCCCCC(=O)O)C(=O)O)C(=O)N[C@@H](Cc1c[nH]cn1)C(=O)N[C@@H](CCC(N)=O)C(=O)NC(C)(C)C(=O)N[C@@H](CC(=O)O)C(=O)N[C@@H](Cc1ccccc1)C(=O)N[C@H](C(=O)N[C@@H](CCC(=O)O)C(=O)N[C@@H](Cc1ccncc1)C(=O)N[C@@H](CC(C)C)C(=O)N[C@@H](CC(C)C)C(=O)N[C@@H](CCC(=O)O)C(=O)N[C@H](C(=O)NCC(=O)N1CCC[C@H]1C(=O)N[C@@H](CO)C(=O)N[C@@H](CO)C(=O)NCC(=O)N[C@@H](C)C(=O)N1CCC[C@H]1C(=O)N1CCC[C@H]1C(=O)N1CCC[C@H]1C(=O)N[C@@H](CO)C(N)=O)[C@@H](C)O)C(C)C` [Example 41] (H-Y[Aib]EGT[αMeF]ISDYSIALDKK([AEEA-AEEA-γGlu-C20 diacid])HQ[Aib]DFVE[4Pal]LLETGPSSGAPPPS-NH2) were, in that order, 758 nM and 0.143 nM.
On to `CC[C@H](C)[C@H](NC(=O)[C@H](CO)NC(=O)[C@H](Cc1ccc(O)cc1)NC(=O)[C@H](CC(=O)O)NC(=O)[C@H](CO)NC(=O)[C@@H](NC(=O)[C@](C)(Cc1ccccc1F)NC(=O)[C@@H](NC(=O)CNC(=O)[C@H](CCC(=O)O)NC(=O)C(C)(C)NC(=O)[C@@H](N)Cc1ccc(O)cc1)[C@@H](C)O)[C@@H](C)CC)C(=O)N[C@@H](C)C(=O)N[C@@H](CC(C)C)C(=O)N[C@@H](CC(=O)O)C(=O)N[C@@H](CCCCN)C(=O)N[C@@H](CCCCNC(=O)COCCOCCNC(=O)COCCOCCNC(=O)CC[C@H](NC(=O)CCCCCCCCCCCCCCCCCCC(=O)O)C(=O)O)C(=O)N[C@@H](Cc1c[nH]cn1)C(=O)N[C@@H](CCC(N)=O)C(=O)NC(C)(C)C(=O)N[C@@H](CCC(=O)O)C(=O)N[C@@H](Cc1ccccc1)C(=O)N[C@H](C(=O)N[C@@H](CC(N)=O)C(=O)N[C@@H](Cc1ccc(O)cc1)C(=O)N[C@@H](CC(C)C)C(=O)N[C@@H](CC(C)C)C(=O)N[C@@H](C)C(=O)N[C@H](C(=O)NCC(=O)N1CCC[C@H]1C(=O)N[C@@H](CO)C(=O)N[C@@H](CO)C(=O)NCC(=O)N[C@@H](C)C(=O)N1CCC[C@H]1C(=O)N1CCC[C@H]1C(=O)N1CCC[C@H]1C(=O)N[C@@H](CO)C(N)=O)[C@@H](C)O)C(C)C` [Example 34] (H-Y[Aib]EGT[αMePhe(2-F)]ISDYSIALDKK([AEEA-AEEA-γGlu-C20 diacid])HQ[Aib]EFVNYLLATGPSSGAPPPS-NH2), for which the values for the Ki on human GcgR and at human GIPR were 143 nM and 0.034 nM, respectively.
For `CC[C@H](C)[C@H](NC(=O)[C@H](Cc1ccccc1)NC(=O)[C@@H](NC(=O)CNC(=O)[C@H](CCC(=O)O)NC(=O)C(C)(C)NC(=O)[C@@H](N)Cc1ccc(O)cc1)[C@@H](C)O)C(=O)N[C@@H](CO)C(=O)N[C@@H](CC(=O)O)C(=O)N[C@@H](Cc1ccc(O)cc1)C(=O)N[C@@H](CO)C(=O)N[C@H](C(=O)N[C@@](C)(CC(C)C)C(=O)N[C@@H](CC(C)C)C(=O)N[C@@H](CC(=O)O)C(=O)N[C@@H](CCCCN)C(=O)N[C@@H](CCCCNC(=O)COCCOCCNC(=O)COCCOCCNC(=O)CC[C@H](NC(=O)CCCCCCCCCCCCCCCCCCC(=O)O)C(=O)O)C(=O)N[C@@H](Cc1c[nH]cn1)C(=O)N[C@@H](CCC(N)=O)C(=O)NC(C)(C)C(=O)N[C@@H](CC(=O)O)C(=O)N[C@@H](Cc1ccccc1)C(=O)N[C@H](C(=O)N[C@@H](CCC(=O)O)C(=O)N[C@@H](Cc1c[nH]c2ccccc12)C(=O)N[C@@H](CC(C)C)C(=O)N[C@@H](CC(C)C)C(=O)N[C@@H](C)C(=O)NCC(=O)NCC(=O)N1CCC[C@H]1C(=O)N[C@@H](CO)C(=O)N[C@@H](CO)C(=O)NCC(=O)N[C@@H](C)C(=O)N1CCC[C@H]1C(=O)N1CCC[C@H]1C(=O)N1CCC[C@H]1C(=O)N[C@@H](CO)C(N)=O)C(C)C)[C@@H](C)CC` [Example 54] (H-Y[Aib]EGTFISDYSI[αMeL]LDKK([AEEA-AEEA-γGlu-C20 diacid])HQ[Aib]DFVEWLLAGGPSSGAPPPS-NH2), in that order: 386 nM and 0.0326 nM.
